Measurements as given in patent publication US9179674B2, “Macrocyclic picolinamide compounds with fungicidal activity” (DOW AGROSCIENCES LLC, priority 2013, dated 2015).
Like-named read-outs stand apart in the source and are kept apart here.

Legend:
[1] = tested on: Mycosphaerella graminicola; Anamorph: Septoria tritici; assay: Leaf Blotch of Wheat fungicidal activity (SEPTTR); assay type: in vivo; conditions: Zymoseptoria tritici; for pest or weed control at 100 ppm: rate 100 ppm; for pest or weed control at 121.5 g/ha: rate 121.5 g/H
Outline: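 Acetone solutions diluted with nine volumes of water containing 110 ppm Triton X-100, sprayed to run-off on first-leaf wheat seedlings (Yuma), inoculated with S. tritici before or after treatment. Plants held in dew chambers, then in a 20 °C greenhouse. Disease severity (0–100%) scored when untreated plants fully symptomatic; % control relative to untreated.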

Puccinia triticina = assay: Wheat Brown Rust fungicidal activity (PUCCRT); assay type: in vivo; conditions: Puccinia triticina; for pest or weed control at 100 ppm: rate 100 ppm; for pest or weed control at 121.5 g/ha: rate 121.5 g/H
Outline: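 Yuma wheat seedlings at first-leaf stage sprayed to run-off (acetone solution in water with 110 ppm Triton X-100) or track-sprayed as EC with 0.1% Trycol 5941; inoculated with P. triticina spores before or after treatment. Overnight dark dew at 22° C., then greenhouse 24° C.; disease severity 0–100% gives percent control vs untreated.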

[2] = 24 h, 1 Day Protectant, read-out: Disease control SEPTTR 1DP
[3] = 72 h, 3 Day Curative, read-out: Disease control SEPTTR 3DC
[4] = 24 h, 1 Day Protectant, read-out: Disease control PUCCRT 1DP
[5] = 72 h, 3 Day Curative, read-out: Disease control PUCCRT 3DC

SMILES | melting point [°C] | pest or weed control at 100 ppm [1, 2] [%] | pest or weed control at 100 ppm [1, 3] [%] | pest or weed control at 100 ppm (Puccinia triticina; [4]) [%] | pest or weed control at 100 ppm (Puccinia triticina; [5]) [%] | pest or weed control at 121.5 g/ha [1, 2] [%] | pest or weed control at 121.5 g/ha [1, 3] [%] | pest or weed control at 121.5 g/ha (Puccinia triticina; [4]) [%] | pest or weed control at 121.5 g/ha (Puccinia triticina; [5]) [%]
COc1ccnc(C(=O)N[C@H]2COC[C@H](Cc3ccc(Cl)cc3Cl)[C@@H](OCC(C)C)[C@H](C)OC2=O)c1OC(C)=O [Compound F74] | 69 to 73 | 80 to 100 | 80 to 100 | 80 to 100 | 80 to 100 | – | – | – | –
COc1ccnc(C(=O)N[C@H]2COC[C@H](Cc3ccc(C)cc3)[C@@H](OC(=O)C(C)C)[C@H](C)OC2=O)c1OC(C)=O [Compound F54] | 88 to 93 | 80 to 100 | 80 to 100 | 80 to 100 | 80 to 100 | 80 to 100 | 80 to 100 | 80 to 100 | 0 to 80
CCCCCO[C@@H]1[C@@H](Cc2ccc(Cl)cc2Cl)COC[C@H](NC(=O)c2nccc(OC)c2O)C(=O)O[C@H]1C [Compound F43] | 50 to 54 | 80 to 100 | 0 to 80 | 0 to 80 | – | – | – | – | –
CCCCCO[C@@H]1[C@@H](Cc2ccc(Cl)cc2Cl)COC[C@H](NC(=O)c2nccc(OC)c2OCOC(C)=O)C(=O)O[C@H]1C [Compound F112] | 53 to 57 | – | – | – | – | 80 to 100 | 80 to 100 | 80 to 100 | 0 to 80
C[C@@H]1OC(=O)[C@@H](N(C(=O)OC(C)(C)C)C(=O)OC(C)(C)C)COC[C@H](Cc2ccc(F)cc2)[C@H]1OC(=O)C1CC1 [Compound F136] | 131 to 133 | – | – | – | – | – | – | – | –
CCCCCO[C@@H]1[C@@H](CC2CCCC2)COC[C@H](NC(=O)c2nccc(OC)c2O)C(=O)O[C@H]1C [Compound F47] | 109 to 111 | 80 to 100 | 80 to 100 | 80 to 100 | 80 to 100 | – | – | – | –
COc1ccnc(C(=O)N[C@H]2COC[C@H](Cc3cccc4ccccc34)[C@@H](OC3CCCC3)[C@H](C)OC2=O)c1O [Compound F9] | 78 to 85 | 80 to 100 | 80 to 100 | 80 to 100 | – | – | – | – | –
COc1ccnc(C(=O)N[C@H]2COC[C@H](Cc3ccc(F)cc3)[C@@H](OC(=O)C3CC3)[C@H](C)OC2=O)c1O [Compound F13] | 68 to 73 | 80 to 100 | 80 to 100 | 80 to 100 | 80 to 100 | – | – | – | –
COc1ccnc(C(=O)N[C@H]2COC[C@H](CCc3ccccc3)[C@@H](OCCCC(F)(F)F)[C@H](C)OC2=O)c1OC(C)=O [Compound F49] | 59 to 64 | 80 to 100 | 80 to 100 | 80 to 100 | 80 to 100 | 80 to 100 | 80 to 100 | 80 to 100 | 0 to 80
COc1ccnc(C(=O)N[C@H]2COC[C@H](Cc3cccc4ccccc34)[C@@H](OC(=O)C(C)C)[C@H](C)OC2=O)c1OC(C)=O [Compound F51, (3S,6S,7R,8S)-3-(3-acetoxy-4-methoxypicolinamido)-6-methyl-8-(naphthalen-1-ylmethyl)-4-oxo-1,5-dioxonan-7-yl isobutyrate] | 104 to 108 | 80 to 100 | 80 to 100 | 80 to 100 | 0 to 80 | – | – | – | –
COc1ccnc(C(=O)N[C@H]2COC[C@H](Cc3ccc(F)cc3)[C@@H](OC(=O)C(C)C)[C@H](C)OC2=O)c1O [Compound F14] | 66 to 71 | 80 to 100 | 80 to 100 | 80 to 100 | 80 to 100 | – | – | – | –
COc1ccnc(C(=O)N[C@H]2COC[C@H](Cc3cccc4ccccc34)[C@@H](OCC(C)C)[C@H](C)OC2=O)c1O [Compound F10] | 78 to 80 | 80 to 100 | 0 to 80 | 80 to 100 | – | – | – | – | –
CC(C)C(=O)O[C@@H]1[C@@H](Cc2cccc3ccccc23)COC[C@H](N(C(=O)OC(C)(C)C)C(=O)OC(C)(C)C)C(=O)O[C@H]1C [Compound F128, [(3S,6S,7R,8S)-3-[bis(tert-butoxycarbonyl)amino]-6-methyl-8-(1-naphthylmethyl)-4-oxo-1,5-dioxonan-7-yl]2-methylpropanoate] | 130 to 132 | – | – | – | – | – | – | – | –
C[C@@H]1OC(=O)[C@@H](N(C(=O)OC(C)(C)C)C(=O)OC(C)(C)C)COC[C@H](Cc2cccc3ccccc23)[C@H]1OC1CCCC1 [Compound F132, tert-butyl N-tert-butoxycarbonyl-N-[(3S,7S,8R,9S)-8-(cyclopentoxy)-9-methyl-7-(1-naphthylmethyl)-2-oxo-1,5-dioxonan-3-yl]carbamate] | 49 to 55 | – | – | – | – | – | – | – | –
COc1ccnc(C(=O)N[C@H]2COC[C@H](Cc3ccc(Cl)cc3Cl)[C@@H](Oc3ccc(C)cc3)[C@H](C)OC2=O)c1O [Compound F44] | 81 to 85 | – | – | 80 to 100 | – | – | – | – | –
CCCCCO[C@@H]1[C@@H](Cc2ccc(C(F)(F)F)cc2)COC[C@H](NC(=O)c2nccc(OC)c2O)C(=O)O[C@H]1C [Compound F31] | – | 80 to 100 | 0 to 80 | 0 to 80 | – | – | – | – | –

More lines, main results first:

melting point [°C] | SMILES | pest or weed control at 100 ppm [1, 2] [%] | pest or weed control at 100 ppm [1, 3] [%] | pest or weed control at 100 ppm (Puccinia triticina; [4]) [%] | pest or weed control at 100 ppm (Puccinia triticina; [5]) [%] | pest or weed control at 121.5 g/ha [1, 2] [%] | pest or weed control at 121.5 g/ha [1, 3] [%] | pest or weed control at 121.5 g/ha (Puccinia triticina; [4]) [%] | pest or weed control at 121.5 g/ha (Puccinia triticina; [5]) [%]
100 to 103 | CCCCCO[C@@H]1[C@@H](Cc2ccc(C)cc2)COC[C@H](N(C(=O)OC(C)(C)C)C(=O)OC(C)(C)C)C(=O)O[C@H]1C [Compound F134] | – | – | – | – | – | – | – | –
94 to 98 | COc1ccnc(C(=O)N[C@H]2COC[C@H](Cc3cccc4ccccc34)[C@@H](Oc3ccc(C)cc3)[C@H](C)OC2=O)c1O [Compound F8] | 80 to 100 | 0 to 80 | 80 to 100 | 0 to 80 | – | – | – | –
52 to 56 | COc1ccnc(C(=O)N[C@H]2COC[C@H](Cc3ccc(F)cc3)[C@@H](OC(=O)C(C)C)[C@H](C)OC2=O)c1OCOC(C)=O [Compound F91] | 80 to 100 | 80 to 100 | 80 to 100 | 80 to 100 | – | – | – | –
57 to 63 | CC(C)CO[C@@H]1[C@@H](Cc2cccc3ccccc23)COC[C@H](N(C(=O)OC(C)(C)C)C(=O)OC(C)(C)C)C(=O)O[C@H]1C [Compound F133] | – | – | – | – | – | – | – | –
97 to 101 | COc1ccnc(C(=O)N[C@H]2COC[C@H](Cc3ccc(Cl)cc3Cl)[C@@H](Oc3ccc(C)cc3)[C@H](C)OC2=O)c1OC(C)=O [Compound F76] | 0 to 80 | – | 80 to 100 | – | 80 to 100 | – | 80 to 100 | 0 to 80
49 to 53 | COc1ccnc(C(=O)N[C@H]2COC[C@H](Cc3ccc(Cl)cc3Cl)[C@@H](OCC(C)C)[C@H](C)OC2=O)c1OCOC(C)=O [Compound F111] | 80 to 100 | 80 to 100 | 80 to 100 | 80 to 100 | – | – | – | –
70 to 74 | COc1ccnc(C(=O)N[C@H]2COC[C@H](Cc3ccc(Cl)cc3Cl)[C@@H](Oc3ccc(C)cc3)[C@H](C)OC2=O)c1OCOC(C)=O [Compound F113] | – | – | – | – | – | – | 80 to 100 | –
78 to 81 | COc1ccnc(C(=O)N[C@H]2COC[C@H](CCc3ccccc3)[C@@H](OCCCC(F)(F)F)[C@H](C)OC2=O)c1O [Compound F2] | 80 to 100 | 80 to 100 | 80 to 100 | 0 to 80 | – | – | – | –
56 to 59 | COc1ccnc(C(=O)N[C@H]2COC[C@H](CC3CCCC3)[C@@H](OCC(C)C)[C@H](C)OC2=O)c1OC(C)=O [Compound F78] | 80 to 100 | 80 to 100 | 80 to 100 | 80 to 100 | – | – | – | –
67 to 72 | COc1ccnc(C(=O)N[C@H]2COC[C@H](Cc3ccc(C)cc3)[C@@H](OC(=O)C(C)C)[C@H](C)OC2=O)c1O [Compound F12] | 80 to 100 | 80 to 100 | 80 to 100 | 80 to 100 | – | – | – | –
45 to 50 | COc1ccnc(C(=O)N[C@H]2COC[C@H](CCc3ccccc3)[C@@H](OC3CCCC3)[C@H](C)OC2=O)c1OCOC(C)=O [Compound F81] | 80 to 100 | 80 to 100 | 80 to 100 | 80 to 100 | – | – | – | –
118 to 122 | COc1ccnc(C(=O)N[C@H]2COC[C@H](Cc3cccc4ccccc34)[C@@H](OCCCC(F)(F)F)[C@H](C)OC2=O)c1O [Compound F6] | 80 to 100 | 0 to 80 | 0 to 80 | – | – | – | – | –
81 to 84 | Cc1ccc(C[C@H]2COC[C@H](N)C(=O)O[C@@H](C)[C@@H]2OCC(C)C)cc1.Cl | – | – | – | – | – | – | – | –
